One may read the IC50 as the concentration that inhibits the measured activity by half.

The values that follow come from ChEMBL document CHEMBL1909046, “DrugMatrix in vitro pharmacology data”.

Sequence of Vascular endothelial growth factor receptor 1 (P17948 whole entry): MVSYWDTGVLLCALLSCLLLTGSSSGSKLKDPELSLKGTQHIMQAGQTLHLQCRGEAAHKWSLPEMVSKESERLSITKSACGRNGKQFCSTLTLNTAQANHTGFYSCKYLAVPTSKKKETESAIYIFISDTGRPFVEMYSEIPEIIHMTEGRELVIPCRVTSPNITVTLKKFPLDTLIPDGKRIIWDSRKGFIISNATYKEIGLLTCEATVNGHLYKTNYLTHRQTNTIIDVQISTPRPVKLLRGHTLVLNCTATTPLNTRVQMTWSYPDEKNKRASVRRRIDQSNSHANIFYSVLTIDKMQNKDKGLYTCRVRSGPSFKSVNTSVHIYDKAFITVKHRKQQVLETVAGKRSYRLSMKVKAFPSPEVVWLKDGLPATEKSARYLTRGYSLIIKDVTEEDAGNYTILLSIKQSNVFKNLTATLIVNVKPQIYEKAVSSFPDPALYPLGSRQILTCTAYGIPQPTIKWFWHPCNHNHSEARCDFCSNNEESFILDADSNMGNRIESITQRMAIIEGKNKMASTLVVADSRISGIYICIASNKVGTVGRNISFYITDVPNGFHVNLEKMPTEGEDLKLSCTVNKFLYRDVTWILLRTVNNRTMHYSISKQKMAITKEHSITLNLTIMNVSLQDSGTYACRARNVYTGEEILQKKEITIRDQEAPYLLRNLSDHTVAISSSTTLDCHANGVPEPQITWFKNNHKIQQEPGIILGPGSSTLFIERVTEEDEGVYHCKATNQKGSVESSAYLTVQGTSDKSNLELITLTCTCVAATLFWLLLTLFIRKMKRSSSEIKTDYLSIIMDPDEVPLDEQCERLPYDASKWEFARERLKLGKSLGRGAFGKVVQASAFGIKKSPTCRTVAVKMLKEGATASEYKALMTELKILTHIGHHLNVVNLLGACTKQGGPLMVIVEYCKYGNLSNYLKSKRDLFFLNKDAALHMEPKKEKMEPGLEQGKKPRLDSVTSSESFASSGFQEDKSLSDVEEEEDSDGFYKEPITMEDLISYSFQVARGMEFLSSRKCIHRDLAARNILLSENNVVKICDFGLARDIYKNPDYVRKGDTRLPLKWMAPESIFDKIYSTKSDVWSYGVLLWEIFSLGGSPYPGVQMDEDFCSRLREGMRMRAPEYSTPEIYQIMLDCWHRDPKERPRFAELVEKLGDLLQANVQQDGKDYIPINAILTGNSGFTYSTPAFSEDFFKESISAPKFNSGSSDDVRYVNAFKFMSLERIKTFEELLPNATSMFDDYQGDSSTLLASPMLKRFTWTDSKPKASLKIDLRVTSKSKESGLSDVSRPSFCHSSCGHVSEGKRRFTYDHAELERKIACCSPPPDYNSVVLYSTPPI

Test system in one assay: not listed separately
Description: DRUGMATRIX: Glutamate, AMPA radioligand binding (ligand: [3H] AMPA). It is filed as cell membranes, Rattus norvegicus, Wistar, Cerebral cortex, Membrane. The conditions noted are these: Not Active = under 50% inhibition at 10 µM.
In the case of `C/C=C\c1ccc(O)c(OC)c1` [ISOEUGENOL], the IC50 entry is recorded as “Not Active” and the Ki result was “Not Active”.
For the molecule `NC[C@H]1O[C@H](O[C@H]2[C@H](O)[C@@H](O[C@H]3O[C@H](CO)[C@@H](O)[C@H](N)[C@H]3O)[C@H](N)C[C@@H]2N)[C@H](O)[C@@H](O)[C@@H]1O` [KANAMYCIN], the IC50 result is recorded as “Not Active” and the Ki result is reported as “Not Active”.
Take `CC(C(=O)O)c1ccc(CC2CCCC2=O)cc1` (stereo not drawn) [LOXOPROFEN]: the IC50 result is given as “Not Active” and the Ki result is “Not Active”.
On to `Cc1cccc(Nc2ccccc2C(=O)O)c1C` [MEFENAMIC ACID], for which the IC50 entry is on record as “Not Active” and the Ki entry was “Not Active”.
Take `CC(=O)O[C@]1(C(C)=O)CC[C@H]2[C@@H]3C=C(C)C4=CC(=O)CC[C@]4(C)[C@H]3CC[C@@]21C` [MEGESTROL ACETATE]: the half-inhibitory concentration (IC50) result was “Not Active” and the Ki entry was “Not Active”.
For `COc1ccccc1OCC(O)COC(N)=O` (stereo not drawn) [METHOCARBAMOL], the concentration for half-maximal inhibition (IC50) result is “Not Active” and the Ki entry is “Not Active”.
For the molecule `CN(Cc1cnc2nc(N)nc(N)c2n1)c1ccc(C(=O)N[C@@H](CCC(=O)O)C(=O)O)cc1` [METHOTREXATE], the IC50 entry is listed as “Not Active” and the Ki entry is reported as “Not Active”.
As to `COC(=O)c1ccccc1O` [METHYL SALICYLATE], the IC50 result is recorded as “Not Active” and the Ki entry was “Not Active”.
Regarding `COc1ccc2cc(CCC(C)=O)ccc2c1` [NABUMETONE], the IC50 entry is given as “Not Active” and the Ki entry was “Not Active”.
For `O=C(O)c1cccnc1` [NIACIN], the IC50 result is recorded as “Not Active” and the Ki entry is given as “Not Active”.
Regarding `CNC(=C[N+](=O)[O-])NCCSCc1csc(CN(C)C)n1` [NIZATIDINE], the half-inhibitory concentration (IC50) result was “Not Active” and the Ki entry was “Not Active”.

The next assay addresses Vascular endothelial growth factor receptor 1 (Homo sapiens, UniProt P17948). Description: biochemical. The format is cell-based, HUVEC. As to conditions: huvec.
With `C/C=C\c1ccc(O)c(OC)c1` [ISOEUGENOL], the IC50 result was “Not Active”.
Take `NC[C@H]1O[C@H](O[C@H]2[C@H](O)[C@@H](O[C@H]3O[C@H](CO)[C@@H](O)[C@H](N)[C@H]3O)[C@H](N)C[C@@H]2N)[C@H](O)[C@@H](O)[C@@H]1O` [KANAMYCIN]: the IC50 result is listed as “Not Active”.
Take `CC(C(=O)O)c1ccc(CC2CCCC2=O)cc1` (stereo not drawn) [LOXOPROFEN]: the concentration for half-maximal inhibition (IC50) result is listed as “Not Active”.
Regarding `Cc1cccc(Nc2ccccc2C(=O)O)c1C` [MEFENAMIC ACID], the half-inhibitory concentration (IC50) entry was “Not Active”.
Still for that read-out and setting: in the case of `CC(=O)O[C@]1(C(C)=O)CC[C@H]2[C@@H]3C=C(C)C4=CC(=O)CC[C@]4(C)[C@H]3CC[C@@]21C` [MEGESTROL ACETATE] it was “Not Active”; in that of `COc1ccccc1OCC(O)COC(N)=O` (stereo not drawn) [METHOCARBAMOL], “Not Active”.
Same read-out and setting: in the case of `CN(Cc1cnc2nc(N)nc(N)c2n1)c1ccc(C(=O)N[C@@H](CCC(=O)O)C(=O)O)cc1` [METHOTREXATE] it was “Not Active”.
For `COC(=O)c1ccccc1O` [METHYL SALICYLATE], the concentration for half-maximal inhibition (IC50) result was “Not Active”.
Same read-out and setting: in the case of `COc1ccc2cc(CCC(C)=O)ccc2c1` [NABUMETONE] it was “Not Active”; in that of `O=C(O)c1cccnc1` [NIACIN], “Not Active”; in that of `CNC(=C[N+](=O)[O-])NCCSCc1csc(CN(C)C)n1` [NIZATIDINE], “Not Active”.

For another assay, the target named is Prostaglandin G/H synthase 1 (Homo sapiens, UniProt P23219). Kind of assay: biochemical. It is filed as tissue-based, Platelet. The conditions noted are these: platelet.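 Further: inhibition of COX-1 enzyme activity, with arachidonic acid supplied as substrate; in other assays of this panel Not Active means under 50% inhibition at 10 µM.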
Sequence of Prostaglandin G/H synthase 1 (P23219 whole entry): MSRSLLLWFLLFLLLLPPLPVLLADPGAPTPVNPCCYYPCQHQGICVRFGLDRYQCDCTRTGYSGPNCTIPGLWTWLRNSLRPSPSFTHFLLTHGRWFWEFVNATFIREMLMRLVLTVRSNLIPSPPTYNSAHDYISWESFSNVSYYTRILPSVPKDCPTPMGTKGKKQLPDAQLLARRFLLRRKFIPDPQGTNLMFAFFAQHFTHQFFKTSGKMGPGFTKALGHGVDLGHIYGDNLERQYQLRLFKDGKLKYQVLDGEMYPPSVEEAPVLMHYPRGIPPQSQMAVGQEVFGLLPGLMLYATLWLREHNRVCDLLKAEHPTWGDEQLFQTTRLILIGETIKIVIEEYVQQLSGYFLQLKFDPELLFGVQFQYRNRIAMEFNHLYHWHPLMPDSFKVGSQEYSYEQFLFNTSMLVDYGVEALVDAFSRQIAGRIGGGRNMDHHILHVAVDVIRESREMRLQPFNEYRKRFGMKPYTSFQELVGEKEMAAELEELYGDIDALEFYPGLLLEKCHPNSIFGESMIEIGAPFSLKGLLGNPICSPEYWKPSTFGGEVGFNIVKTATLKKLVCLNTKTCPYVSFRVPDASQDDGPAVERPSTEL
For `C/C=C\c1ccc(O)c(OC)c1` [ISOEUGENOL], the IC50 entry is given as “Not Active”.
In the case of `NC[C@H]1O[C@H](O[C@H]2[C@H](O)[C@@H](O[C@H]3O[C@H](CO)[C@@H](O)[C@H](N)[C@H]3O)[C@H](N)C[C@@H]2N)[C@H](O)[C@@H](O)[C@@H]1O` [KANAMYCIN], the IC50 result was “Not Active”.
As for `CC(C(=O)O)c1ccc(CC2CCCC2=O)cc1` (stereo not drawn) [LOXOPROFEN], the IC50 entry is on record as “Not Active”.
In the case of `CC(=O)O[C@]1(C(C)=O)CC[C@H]2[C@@H]3C=C(C)C4=CC(=O)CC[C@]4(C)[C@H]3CC[C@@]21C` [MEGESTROL ACETATE], the IC50 result is reported as “Not Active”.
On to `COc1ccccc1OCC(O)COC(N)=O` (stereo not drawn) [METHOCARBAMOL], for which the IC50 result was “Not Active”.
As to `CN(Cc1cnc2nc(N)nc(N)c2n1)c1ccc(C(=O)N[C@@H](CCC(=O)O)C(=O)O)cc1` [METHOTREXATE], the concentration for half-maximal inhibition (IC50) entry is recorded as “Not Active”.
Consider `COC(=O)c1ccccc1O` [METHYL SALICYLATE], for which the IC50 result is on record as “Not Active”.
On to `COc1ccc2cc(CCC(C)=O)ccc2c1` [NABUMETONE], for which the IC50 entry is “Not Active”.
On to `O=C(O)c1cccnc1` [NIACIN], for which the IC50 result is reported as “Not Active”.
Turning to `CNC(=C[N+](=O)[O-])NCCSCc1csc(CN(C)C)n1` [NIZATIDINE], the IC50 result was “Not Active”.

The assay is the same for the next values; noted with them: read-out: IC50.
For the molecule `Cc1cccc(Nc2ccccc2C(=O)O)c1C` [MEFENAMIC ACID], the IC50 came out at 116 nM.

A further assay deals with 5-hydroxytryptamine receptor 1B (Rattus norvegicus, UniProt P28564).
Sequence of 5-hydroxytryptamine receptor 1B (P28564 whole entry): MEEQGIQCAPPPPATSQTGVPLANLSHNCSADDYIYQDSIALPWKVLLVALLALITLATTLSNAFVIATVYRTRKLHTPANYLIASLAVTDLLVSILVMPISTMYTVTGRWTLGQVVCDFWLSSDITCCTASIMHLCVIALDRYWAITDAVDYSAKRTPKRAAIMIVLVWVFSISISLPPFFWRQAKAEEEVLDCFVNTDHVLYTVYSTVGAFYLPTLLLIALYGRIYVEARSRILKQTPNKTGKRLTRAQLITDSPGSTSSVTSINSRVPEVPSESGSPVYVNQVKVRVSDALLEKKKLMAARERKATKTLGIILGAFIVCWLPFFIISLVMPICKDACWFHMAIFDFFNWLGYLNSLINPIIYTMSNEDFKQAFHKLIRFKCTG
Assay: not given
It is filed as cell membranes, Wistar, Cerebral cortex, Membrane.
Conditions: not given
Consider `C/C=C\c1ccc(O)c(OC)c1` [ISOEUGENOL], for which the IC50 result was “Not Active”.
Still for that read-out and setting: in the case of `NC[C@H]1O[C@H](O[C@H]2[C@H](O)[C@@H](O[C@H]3O[C@H](CO)[C@@H](O)[C@H](N)[C@H]3O)[C@H](N)C[C@@H]2N)[C@H](O)[C@@H](O)[C@@H]1O` [KANAMYCIN] it was “Not Active”; in that of `CC(C(=O)O)c1ccc(CC2CCCC2=O)cc1` (stereo not drawn) [LOXOPROFEN], “Not Active”; in that of `Cc1cccc(Nc2ccccc2C(=O)O)c1C` [MEFENAMIC ACID], “Not Active”.
Take `CC(=O)O[C@]1(C(C)=O)CC[C@H]2[C@@H]3C=C(C)C4=CC(=O)CC[C@]4(C)[C@H]3CC[C@@]21C` [MEGESTROL ACETATE]: the half-maximal inhibitory concentration (IC50) result is “Not Active”.
In the case of `COc1ccccc1OCC(O)COC(N)=O` (stereo not drawn) [METHOCARBAMOL], the IC50 result was “Not Active”.
Still for that read-out and setting: the value for `CN(Cc1cnc2nc(N)nc(N)c2n1)c1ccc(C(=O)N[C@@H](CCC(=O)O)C(=O)O)cc1` [METHOTREXATE] was “Not Active”.
As for `COC(=O)c1ccccc1O` [METHYL SALICYLATE], the IC50 entry is given as “Not Active”.
As to `COc1ccc2cc(CCC(C)=O)ccc2c1` [NABUMETONE], the IC50 result is “Not Active”.
For the molecule `O=C(O)c1cccnc1` [NIACIN], the IC50 result is “Not Active”.
In the case of `CNC(=C[N+](=O)[O-])NCCSCc1csc(CN(C)C)n1` [NIZATIDINE], the IC50 entry is given as “Not Active”.

The target of the next assay is T1, Type-2 angiotensin II receptor (Homo sapiens, UniProt P50052). Further: in other assays of this panel Not Active means under 50% inhibition at 10 µM.
T1 sequence (P50052 whole entry): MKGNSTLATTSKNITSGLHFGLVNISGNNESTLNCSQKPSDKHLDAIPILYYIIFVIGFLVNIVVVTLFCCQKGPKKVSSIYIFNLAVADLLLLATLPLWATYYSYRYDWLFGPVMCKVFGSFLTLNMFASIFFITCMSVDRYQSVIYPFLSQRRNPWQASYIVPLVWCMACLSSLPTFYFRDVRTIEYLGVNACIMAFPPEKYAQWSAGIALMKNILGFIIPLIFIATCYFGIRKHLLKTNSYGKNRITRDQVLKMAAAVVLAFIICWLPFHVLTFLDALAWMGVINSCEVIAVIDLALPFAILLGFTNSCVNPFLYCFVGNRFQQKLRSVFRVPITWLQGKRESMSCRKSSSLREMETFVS
Assay: not given
The conditions noted are these: cho-k1. It is filed as cell-based.
With `C/C=C\c1ccc(O)c(OC)c1` [ISOEUGENOL], the IC50 result is recorded as “Not Active”.
For `NC[C@H]1O[C@H](O[C@H]2[C@H](O)[C@@H](O[C@H]3O[C@H](CO)[C@@H](O)[C@H](N)[C@H]3O)[C@H](N)C[C@@H]2N)[C@H](O)[C@@H](O)[C@@H]1O` [KANAMYCIN], the IC50 entry was “Not Active”.
In the case of `CC(C(=O)O)c1ccc(CC2CCCC2=O)cc1` (stereo not drawn) [LOXOPROFEN], the IC50 result is listed as “Not Active”.
Take `Cc1cccc(Nc2ccccc2C(=O)O)c1C` [MEFENAMIC ACID]: the IC50 entry is “Not Active”.
Consider `CC(=O)O[C@]1(C(C)=O)CC[C@H]2[C@@H]3C=C(C)C4=CC(=O)CC[C@]4(C)[C@H]3CC[C@@]21C` [MEGESTROL ACETATE], for which the IC50 result is on record as “Not Active”.
On the same count and under the same terms, the value for `COc1ccccc1OCC(O)COC(N)=O` (stereo not drawn) [METHOCARBAMOL] was “Not Active”; that for `CN(Cc1cnc2nc(N)nc(N)c2n1)c1ccc(C(=O)N[C@@H](CCC(=O)O)C(=O)O)cc1` [METHOTREXATE] was “Not Active”.
In the case of `COC(=O)c1ccccc1O` [METHYL SALICYLATE], the IC50 result is “Not Active”.
With `COc1ccc2cc(CCC(C)=O)ccc2c1` [NABUMETONE], the IC50 result is “Not Active”.
In the case of `O=C(O)c1cccnc1` [NIACIN], the IC50 result was “Not Active”.
As for `CNC(=C[N+](=O)[O-])NCCSCc1csc(CN(C)C)n1` [NIZATIDINE], the IC50 entry is “Not Active”.

Test system in the next assay: not listed separately
Kind of assay: DRUGMATRIX: Potassium Channel [KATP] radioligand binding (ligand: [3H] Glyburide). It is filed as cell membranes, Membrane. The conditions noted are these: hit-t15; Not Active = under 50% inhibition at 10 µM.
Turning to `C/C=C\c1ccc(O)c(OC)c1` [ISOEUGENOL], the half-maximal inhibitory concentration (IC50) entry was “Not Active” and the Ki result is listed as “Not Active”.
With `NC[C@H]1O[C@H](O[C@H]2[C@H](O)[C@@H](O[C@H]3O[C@H](CO)[C@@H](O)[C@H](N)[C@H]3O)[C@H](N)C[C@@H]2N)[C@H](O)[C@@H](O)[C@@H]1O` [KANAMYCIN], the IC50 entry is reported as “Not Active” and the Ki result is recorded as “Not Active”.
For the molecule `CC(C(=O)O)c1ccc(CC2CCCC2=O)cc1` (stereo not drawn) [LOXOPROFEN], the IC50 result was “Not Active” and the Ki entry is recorded as “Not Active”.
`Cc1cccc(Nc2ccccc2C(=O)O)c1C` [MEFENAMIC ACID]: the IC50 entry was “Not Active” and the Ki entry is given as “Not Active”.
Regarding `CC(=O)O[C@]1(C(C)=O)CC[C@H]2[C@@H]3C=C(C)C4=CC(=O)CC[C@]4(C)[C@H]3CC[C@@]21C` [MEGESTROL ACETATE], the 50% inhibitory concentration (IC50) entry is listed as “Not Active” and the Ki result is “Not Active”.
With `COc1ccccc1OCC(O)COC(N)=O` (stereo not drawn) [METHOCARBAMOL], the IC50 entry is recorded as “Not Active” and the Ki result was “Not Active”.
Consider `CN(Cc1cnc2nc(N)nc(N)c2n1)c1ccc(C(=O)N[C@@H](CCC(=O)O)C(=O)O)cc1` [METHOTREXATE], for which the IC50 result is reported as “Not Active” and the Ki result was “Not Active”.
Take `COC(=O)c1ccccc1O` [METHYL SALICYLATE]: the concentration for half-maximal inhibition (IC50) entry is “Not Active” and the Ki result is given as “Not Active”.
`COc1ccc2cc(CCC(C)=O)ccc2c1` [NABUMETONE]: the IC50 entry is on record as “Not Active” and the Ki result is “Not Active”.
For `O=C(O)c1cccnc1` [NIACIN], the half-maximal inhibitory concentration (IC50) entry is “Not Active” and the Ki entry was “Not Active”.
Turning to `CNC(=C[N+](=O)[O-])NCCSCc1csc(CN(C)C)n1` [NIZATIDINE], the IC50 entry is on record as “Not Active” and the Ki result is recorded as “Not Active”.
